Measured values from patent US20040214158A1, “Treatment of human papillomavirus (hpv)-infected cells” (priority 2000, published 2004).

Tests used:
[1] = tested on: untransfected cell lines; test: TUNEL staining of untransfected cell lines; type: cell-based; conditions: 20.0 μg/ml, six to eight days (data not shown)
Text: (§1) The DeadEnd Colorimetric Apoptosis Detection System (Promega, Wis.) is a modified TUNEL (TdT-mediated dUTP Nick-End Labeling) assay in which the enzyme Terminal deoxynucleotidyl Transferase (TdT) incorporates biotinylated nucleotides at the 3′-OH DNA ends (1, 20). Streptavidin horseradish-peroxidase is then bound to the biotinylated nucleotides, which are detected by hydrogen peroxide and diaminobenzidine (DAB), a stable chromogen. Using this procedure, apoptotic nuclei stained dark brown when visualized under a light microscope.

[2] = tested on: CaSki cells; test: MTS cell proliferation assay, GCV/ACV on transfected CaSki cells; conditions: for effect on cell viability: CaSki cells mock-transfected or transfected with control plasmid pNSGL0; for growth inhibition: CaSki cells transfected with HPV 16 LCR-driven HSV 1-TK plasmid, 20-30 μg/ml for 6-8 days
Protocol: All transfections were performed by calcium phosphate mediated transfection using the Profection Mammalian Transfection Systems (Promega, Wis.) according to the manufacturer's instructions. Cells were seeded at a density of 2×10^5 cells in each well in two mls of DMEM and grown to 50-60% confluence. One μg of plasmid DNA was used for transfecting each cell line. The calcium phosphate-DNA mix was overlaid on the cells for four to six hours and then replaced by two mls of complete medium. For mock-transfections, no DNA was added to the calcium phosphate transfection reagent. To measure promoter activity with a standard luciferase assay (Promega, Wis.) the transfected cells were harvested after 24-48 hours. To analyze HSV 1-TK gene expression by RT-PCR, the transfected cells were harvested 48-60 hours after transfection.
The CaSki, SiHa, HSC3 and HeLa cell lines were transfected with the pNSGLTK-8 or pNSGL0 plasmids or mock transfected with no plasmid. […] The absorbance at 490 nm is a measure of the number of living cells in the culture. Percent survival was calculated as follows: [formula]

[3] = tested on: CaSki cells; test: TUNEL apoptosis detection in transfected CaSki cells; type: cell-based, human
Text: as §1

[4] = tested on: SiHa cells; test: MTS cell proliferation assay, GCV on transfected SiHa cells; type: cell-based, human; conditions: SiHa cells transfected with pNSGLTK-8, 20.0 μg/ml
Protocol: (§2) Percent survival was calculated as follows: [formula]

[5] = tested on: SiHa cells; test: TUNEL apoptosis detection in transfected SiHa cells; type: cell-based, human; conditions: SiHa cells transfected with pNSGLTK-8; 20.0 μg/ml GCV, eight to ten days
Text: as §1

[6] = tested on: CaSki cells; test: Confocal microscopy of HSV1-TK protein and PI nuclear staining in transfected CaSki cells; type: cell-based, human; conditions: CaSki cells transfected with pNSGLTK-8; 20 ug/ml GCV for 2 days
Protocol: CaSki cells were transfected with HPV16 LCR driven HSV1-TK construct (pNSGLTK-8). After 48 hours, cell were fixed and HSV-TK protein was detected using polyclonal rabbit anti-HSV1-TK antibody and FITC-conjugated goat anti-rabbit secondary antibody. The nuclear staining was done with propidium iodide. The cells were examined by confocal microscopy.
Cell were fixed and HSV1-TK protein was detected using polyclonal rabbit anti-HSV1-TK antibody and FITC-conjugated goat anti-rabbit secondary antibody. The nuclear staining was done with propidium iodide. The cells were examined by confocal microscopy.

[7] = tested on: VERO—African Green Monkey kidney cell line; test: GCV cytotoxicity on transfected VERO cells; type: cell-based; conditions: VERO cells transfected with pNSGLTK-8; different concentrations, 6 days
Text: (§3) To test the specificity of the methods described herein, an HPV positive cell line (CaSKi) and four HPV-negative cell lines were transfected with the plasmid plasmid pNSGLTK-8 described herein.

[8] = tested on: HSC3 cells; test: GCV cytotoxicity on transfected HSC3 cells; type: cell-based, human; conditions: HSC3 cells transfected with pNSGLTK-8; different concentrations, 6 days
Protocol: as §2

[9] = tested on: HeLa cells; test: GCV killing of transfected HeLa cells; type: cell-based, human; conditions: HeLa cells transfected with pNSGLTK-8; 20.0 μg/ml, two weeks (data not shown)
Protocol: as §2

[10] = tested on: Human oral squamous cell carcinoma cell, SSC9; test: GCV cytotoxicity on transfected SSC9 cells; type: cell-based; conditions: SSC9 cells transfected with pNSGLTK-8; different concentrations, 6 days
Text: as §3

[11] = taken orally by patients, clinical trials (Sugawara et al. 2000); cited from earlier work

SMILES | apoptotic cells (TUNEL staining) [1] | effect on cell viability [2] | growth inhibition [2] | concentration showing cytotoxic effects ([2]; CaSki cells transfected with pNSGLTK-8, ten days exposure) | apoptosis (TUNEL staining, morphology) ([3]; cells transfected with pNSGLTK-8, 20.0 μg/ml ACV, six days (FIG. 12: CaSki)) | cells killed ([4]; six days) | cells killed ([4]; two weeks (data not shown)) | apoptosis (TUNEL staining, morphology) [5] | cytotoxicity ([2]; CaSKi cells transfected with pNSGLTK-8, 6 days exposure) | effect on cell viability, dose dependence ([2]; CaSki cells transfected with pNSGLTK-8, 0, 5, 10, 20 μg/ml GCV, six days) | cells killed ([2]; CaSki cells transfected with pNSGLTK-8, 20.0 μg/ml, 10 days) | maximal cell death ([2]; CaSki cells transfected with pNSGLTK-8, 20.0 μg/ml, six days) | nuclear staining by PI [6] | cytotoxic effect [7] | apoptosis (TUNEL staining, morphology) ([3]; CaSki cells transfected with pNSGLTK-8, 20.0 μg/ml GCV, four days) | cytotoxic effect [8] | cells killed [9] | cytotoxic effect [10] | bioavailability [11]
Nc1nc2c(ncn2COCCO)c(=O)[nH]1 [ACV, acyclovir] | did not show an increase in apoptotic cells | refractory | approximately 80% | 30000 ng/mL | Typical apoptotic morphology of TUNEL-stained nuclei | – | – | – | – | – | – | – | – | – | – | – | – | – | –
Nc1nc(O)c2ncn(COC(CO)CO)c2n1 [GCV, ganciclovir] | did not show an increase in apoptotic cells | No significant effect on cell viability | approximately 80% | – | – | approximately 42% | more than 90% | significant cell death associated with typical apoptotic morphology | cytotoxicity is restricted to HPV positive cell line CaSKi only | dose-dependent effect | more than 95% | approximately 80% | majority of nuclei look disrupted due to early apoptosis | did not show any significant cytotoxic effect | characteristic apoptotic morphology | did not show any significant cytotoxic effect | more than 90% | did not show any significant cytotoxic effect | –
CC(C)[C@H](N)C(=O)OCC(CO)OCn1cnc2c(=O)nc(N)[nH]c21 (stereo partly shown) [valganciclovir] | – | – | – | – | – | – | – | – | – | – | – | – | – | – | – | – | – | – | enhance the bioavailability of ganciclovir
